Among the data in PubChem BioAssay AID179 (DTP/NCI, 2004) are EC50, IC50 and outcome values, retold here.

The source made the active and inactive calls.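 The calls were made as follows: active = compounds giving half or more protection of infected cells from virus-caused growth loss, again on retest; inactive = the rest.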 Where a SMILES comes first, the peptide text is derived from it. [ ]: non-standard residue; d: D form. The star is where a group is joined. ONb = O=[N+]([O-])c1ccc(CO*)cc1; AllylGly = C=CC[CH](N)C(=O)O; Boc = CC(C)(C)OC(=O)* Where only a bound is given, the exact number is not on record here.

For the assay, the system named is CEM cells HIV-1 protection, formazan growth assay. Put plainly: NCI AIDS Antiviral Assay. The following applies: for IC50: measured here: growth of uninfected CEM cells. The procedure, abridged:
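Five concentrations of each compound were applied to infected and uninfected human CEM cells. Protection from HIV-1 was judged from growth measured with a soluble formazan assay.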

Compound `C(=C\c1ccccc1)/c1ccccc1` yielded a 50% effective concentration (EC50) of more than 200 µM and a half-maximal inhibitory concentration (IC50) of more than 200 µM.
Consider `CCCCCCCCCCCCNC(=O)NCC(OCC)OCC`, for which the EC50 is more than 200 µM and the IC50 was 31.6 µM.
With `Cc1nc2sccn2c1C(=O)NC(=O)Nc1ccc(Cl)cc1`, the EC50 was more than 20.4 µM and the concentration for half-maximal inhibition (IC50) was more than 20.4 µM.
For `Cc1ccccc1-n1c(SCC(=O)NC(=O)Nc2cccc(Cl)c2)nc2c(Br)cc(Br)cc2c1=O`, the EC50 was more than 200 µM and the half-inhibitory concentration (IC50) was more than 200 µM.
In the case of `c1ccc(N2CCN(CCCN3CCc4c([nH]c5ccccc45)C3c3cccnc3)CC2)cc1` (stereo not drawn), the EC50 is more than 2.19 µM and the IC50 is more than 2.19 µM.
In the case of `CCOC(=O)c1c(SCCN2CCCCC2)n(-c2ccccc2)c(=S)n(-c2ccccc2)c1=O`, the EC50 is more than 20 µM and the half-inhibitory concentration (IC50) is more than 20 µM.
`C=C(Br)CN(C(C)=O)C1CCCCC1`: the EC50 is more than 200 µM and the IC50 was more than 200 µM.
On to `CCOP(=O)(OCC)/C(C#N)=C/c1ccc(F)cc1`, for which the EC50 is more than 891 µM and the half-maximal inhibitory concentration (IC50) is more than 891 µM.
Regarding `CCN(CC)CCOC(=O)Cc1cccc2c(=O)cc(-c3ccccc3)oc12`, the result was inactive.
As to `CCOC(=O)C(NCc1cccc(C(F)(F)F)c1)(NC(=O)c1ccccc1)C(F)(F)F` (stereo not drawn), the EC50 is more than 200 µM and the IC50 amounted to 18.6 µM.
Taken in the same sequence, the figures for `CC1(C)CC(=O)C(=[N+]=[N-])C(=O)C1` were more than 200 µM and more than 200 µM.
`CN(/N=C\c1ccccc1Cl)C(c1ccccc1Cl)N(C)/N=C/c1ccccc1Cl` (stereo not drawn): the outcome was inactive.
Turning to `CC1CC[C@]2(C(=O)O)CCC3(C)C(=CC(=O)C4[C@@]5(C)CCC(=O)C(C)(C)C5CC[C@]43C)[C@@H]2[C@H]1C` (stereo partly drawn), the outcome was inactive.
As to `Cc1cc(C)c2cc(N)c(Cl)nc2n1`, the EC50 is more than 200 µM and the IC50 came to 145 µM.
Taken in the same sequence, the figures for `Cc1ccc(NC(=O)/C(CC(=O)c2sc(Nc3ccc(Cl)c(Cl)c3)nc2C)=N\Nc2ccc([N+](=O)[O-])cc2[N+](=O)[O-])c(C)c1` were more than 200 µM and 25.1 µM.
On to `C1COCCSC2=C(SCCO1)SC(=C1SC3=C(SCCOCCOCCS3)S1)S2`, for which the EC50 was more than 17.8 µM and the 50% inhibitory concentration (IC50) is more than 17.8 µM.
`C[Si](C)(C)C#CC(O)CS(=O)c1ccccc1` (stereo not drawn): the EC50 is more than 200 µM and the 50% inhibitory concentration (IC50) came to 105 µM.
Taken in the same sequence, the figures for `OC12C=CC(CCCC1)O2` (stereo not drawn) were more than 200 µM and 12.3 µM.
On the same counts, the results for `COc1ccc(OC)c(NS(=O)(=O)c2ccc3nc(C)n(NS(=O)(=O)c4cc(OC)ccc4OC)c(=O)c3c2)c1` are more than 200 µM and 43.7 µM.
Taken in the same sequence, the figures for `CC1CN1c1c(C(=O)/C=C/c2ccc(F)cc2)c(-c2ccccc2)nn(C)c1=O` (stereo not drawn) were more than 120 µM and 11 µM.
For `COC(=O)C(CCC1(C)OCCO1)C(C)=O` (stereo not drawn), the EC50 was 31.6 µM and the IC50 turned out to be 251 µM.
On the same counts, the results for `O=C(CCC(C(=O)OCc1ccccc1)C(=O)OCc1ccccc1)Nc1ccc(OCc2ccccc2)cc1` are more than 200 µM and 107 µM.
For `O=C(CCNC12CC3CC(CC(C3)C1)C2)c1ccccc1`, the result was inactive.
`CN1CCN(CCSc2nnc(-c3ccc4ccccc4c3)c3ccccc23)CC1`: the EC50 is more than 219 µM and the IC50 turned out to be 12.9 µM.
Take `COC1C(/C(=N\O)n2cnc3c(Cl)ncnc32)OC2OC(C)(C)OC21` (stereo not drawn): the EC50 was more than 200 µM and the 50% inhibitory concentration (IC50) is more than 100 µM.
On the same counts, the results for `O=C1CCC(O)=C1O` are more than 2190 µM and more than 2190 µM.
On the same counts, the results for `O=CC[C@]12CC(=O)OC(C=CC13OCCO3)C2` are more than 200 µM and more than 200 µM.
`N#CN=C(N)NC(=O)c1ccccc1`: the outcome was inactive.
For the compound `Cc1cccc(NC(=S)Nc2ccc([N+](=O)[O-])cc2)n1`, the EC50 is more than 200 µM and the half-maximal inhibitory concentration (IC50) was more than 200 µM.
For `O=[N+]([O-])c1cccc2nc3ccccc3c(NCCCN3CCOCC3)c12`, the EC50 is more than 0.2 µM and the IC50 stood at 0.0631 µM.
Turning to `NCC1OC(OC2C(N)CC(N)C(O)C2O)C(NC(=O)c2ccccc2)C(O)C1O` (stereo not drawn), the outcome was inactive.
Consider `Nc1ncnc2c1ncn2C1OC2(CCSC2)C(O)C1O` (stereo not drawn), for which the EC50 is more than 200 µM and the IC50 was 155 µM.
On the same counts, the results for `CC(=O)OC1COC(n2c3ccccc3c3ccc4c5ccccc5[nH]c4c32)C(OC(C)=O)C1OC(C)=O` (stereo not drawn) are more than 117 µM and 115 µM.
On the same counts, the results for `COc1cccc(N=N/C(=N\NC(=O)c2cc(Br)ccc2O)c2ccc(N(CCC#N)CCC#N)cc2OC)c1` are more than 100 µM and 13.5 µM.
Consider `O=C(c1cccs1)N(C(=S)N1CCN(c2ccccc2)CC1)C1CCCCC1`, for which the EC50 is more than 12.6 µM and the IC50 was more than 12.6 µM.
Turning to `COc1ccc2c(c1)C(O)(C(F)(F)F)c1cc(C(=O)C(F)(F)F)c3ccccc3c1N2` (stereo not drawn), the EC50 was more than 6.17 µM and the 50% inhibitory concentration (IC50) was more than 6.17 µM.
Turning to `COc1ccc(CC2NCCc3cc(OC)c(OC)cc32)cc1Br` (stereo not drawn), the EC50 was more than 240 µM and the 50% inhibitory concentration (IC50) stood at 33.9 µM.
For the compound `CN(C)C(=O)Nc1cc2c3c(c1)CCCN3CCC2`, the half-maximal effective concentration (EC50) is 81.3 µM and the IC50 was 174 µM.
On the same counts, the results for `C=CCC(NC(=O)OC(C)(C)C)C(=O)NC(CCC(=O)OCc1ccc([N+](=O)[O-])cc1)C(N)=O` (stereo not drawn) (Boc-[AllylGly]-Glu(ONb)-NH2; configuration not given here) are more than 200 µM and 102 µM.
Taken in the same sequence, the figures for `Oc1[nH]c2ccccc2c1N=Nc1nc(-c2ccc(Br)cc2)cs1` were more than 200 µM and 120 µM.
Taken in the same sequence, the figures for `N#CCCN(C(=O)Nc1cccc(C(F)(F)F)c1)C1CCCCC1` were more than 200 µM and more than 200 µM.
Consider `NNC(=O)N/N=C1\CN(c2ccc(Cl)cc2Cl)C(=O)C(=O)C1c1nc2ccccc2o1` (stereo not drawn), for which the result was inactive.
As to `O=C1C=C2CCC[C@H]3OC(=O)C[C@@]23CC1`, the outcome was inactive.
For the compound `CN1CC2(CO)C(c3ccccn3)N(C)C(c3ccccn3)C(CO)(C1)C2O` (stereo not drawn), the EC50 is more than 115 µM and the IC50 was more than 115 µM.
Consider `O=C1CC(c2ccco2)NC(=O)N1CCCl` (stereo not drawn), for which the EC50 is more than 200 µM and the IC50 was more than 200 µM.
With `CCOC(=O)NC(=O)c1cn(CCNCCO)c(=O)[nH]c1=O`, the result was inactive.
With `CC(=O)N1C(Nc2ccccc2)CCN1c1ccccc1` (stereo not drawn), the EC50 is more than 200 µM and the IC50 was 11.2 µM.
Taken in the same sequence, the figures for `Clc1ccc(NCc2nnc(CCCCCCCCc3nnc(CNc4ccc(Cl)cc4)o3)o2)cc1` were more than 200 µM and more than 200 µM.
As for `COC1/C=C/OC2(C)Oc3c(C)c(O)c4c(O)c(cc(OCC(=O)N(Cc5ccccc5)Cc5ccccc5)c4c3C2=O)NC(=O)/C(C)=C/C=C/C(C)C(O)C(C)C(O)C(C)C(OC(C)=O)C1C` (stereo not drawn), the outcome was inactive.
`COc1cc2ccc1OCc1cccc(n1)COc1ccc(cc1OC)C=Nc1ccc(cc1)-c1ccc(cc1)N=C2`: the EC50 was more than 200 µM and the IC50 was more than 200 µM.
With `C#CCNC(Cc1cnc[nH]1)C(=O)O` (stereo not drawn), the EC50 is more than 200 µM and the IC50 is more than 200 µM.
On to `CN1C(=O)CC2(C)c3cc(O)ccc3N(C)C12` (stereo not drawn), for which the outcome was inactive.
In turn, `Nc1ccn(C2CCC(CO)O2)c(=O)n1` (stereo not drawn) registered a 50% effective concentration (EC50) of 4.68 µM and an IC50 of 13.5 µM.
Turning to `CC(C)(C)c1cc(O)c2c(c1O)C(=O)CCC2`, the result was inactive.
On to `CCOC(=O)c1[nH]n(-c2ccccc2)c(=O)c1/C=N/C(=S)Nc1c(CC)cccc1CC`, for which the EC50 is more than 100 µM and the concentration for half-maximal inhibition (IC50) is 24.5 µM.
On the same counts, the results for `Cc1cc2ncn(C3CCCO3)c2cc1C` (stereo not drawn) are more than 200 µM and more than 200 µM.
On to `CN1CC[C@]2(C)c3c(O)cccc3CC3CCCC1C32C` (stereo partly drawn), for which the result was inactive.
For the compound `CCOC(=O)C(CC1OCCO1)C1=NC(C)(C)CC(C)O1` (stereo not drawn), the EC50 was more than 200 µM and the IC50 was more than 200 µM.
For the compound `N#CC(/C(CCC(=O)Nc1ccc(Cl)cc1)=N/NC(=O)c1cc2ccccc2cc1O)c1ccccc1` (stereo not drawn), the EC50 is more than 51.3 µM and the IC50 worked out at 12.6 µM.
On the same counts, the results for `COc1cc(N(CCC#N)CCC#N)ccc1/C(N=Nc1ccc([N+](=O)[O-])cc1)=N/NC(=O)c1cc(Br)ccc1O` are more than 200 µM and 33.1 µM.
On the same counts, the results for `Brc1csnn1` are more than 200 µM and more than 200 µM.
Taken in the same sequence, the figures for `CCOC(=O)C1C2CCC(O2)C1C(=O)O` (stereo not drawn) were more than 200 µM and 21.4 µM.
In the case of `O=C1NC(=O)[C@@]2(CCOc3ccc(F)cc32)N1`, the EC50 was more than 741 µM and the half-maximal inhibitory concentration (IC50) stood at 661 µM.
On the same counts, the results for `Cc1cc2c(cc1-c1cc3c(cc1C)C(C(C)C)=C(O)C(=O)/C3=C\Nc1ccccn1)/C(=C/Nc1ccccn1)C(=O)C(O)=C2C(C)C` are more than 100 µM and 45.7 µM.
Regarding `COc1ccc2[nH]c3c(c2c1)CCc1ccccc1-3`, the result was inactive.
Turning to `COc1ccc(C(Nc2ccc([N+](=O)[O-])cc2)P(=O)(c2ccccc2)c2ccccc2)cc1` (stereo not drawn), the EC50 is more than 200 µM and the IC50 turned out to be 10.5 µM.
Taken in the same sequence, the figures for `CSC1=Nc2cc3c(cc2C(=O)N2C[C@H](O)CC12)OCO3` (stereo partly drawn) were more than 200 µM and 110 µM.
On to `CC(C)(C)c1cc(-c2c3nc(c(-c4cc(C(C)(C)C)cc(C(C)(C)C)c4)c4ccc([nH]4)c(-c4cc(C(C)(C)C)cc(C(C)(C)C)c4)c4nc(c(-c5cc(C(C)(C)C)cc(C(C)(C)C)c5)c5ccc2[nH]5)C=C4)C=C3)cc(C(C)(C)C)c1`, for which the EC50 is more than 33.9 µM and the IC50 is more than 33.9 µM.
In the case of `CC1(C)N=C(C(N)=O)c2[nH]cnc2N1`, the EC50 is more than 200 µM and the IC50 was more than 200 µM.
Regarding `O=C(c1cccc(C(=O)N(c2ccccc2)c2ccccc2)n1)N(c1ccccc1)c1ccccc1`, the EC50 is more than 11.2 µM and the half-maximal inhibitory concentration (IC50) was more than 11.2 µM.
With `CN(CCO)CNC(=O)C1=C(O)C2(O)C(=O)C3=C(O)c4c(O)cccc4C(C)(O)C3CC2C(N(C)C)C1=O` (stereo not drawn), the EC50 was more than 178 µM and the IC50 was more than 178 µM.
